The target of experiment [1] is T1, PDK1 (Homo sapiens, UniProt O15530).
T1 construct: His6 (N)
T1 sequence (O15530 51-556 limits assumed): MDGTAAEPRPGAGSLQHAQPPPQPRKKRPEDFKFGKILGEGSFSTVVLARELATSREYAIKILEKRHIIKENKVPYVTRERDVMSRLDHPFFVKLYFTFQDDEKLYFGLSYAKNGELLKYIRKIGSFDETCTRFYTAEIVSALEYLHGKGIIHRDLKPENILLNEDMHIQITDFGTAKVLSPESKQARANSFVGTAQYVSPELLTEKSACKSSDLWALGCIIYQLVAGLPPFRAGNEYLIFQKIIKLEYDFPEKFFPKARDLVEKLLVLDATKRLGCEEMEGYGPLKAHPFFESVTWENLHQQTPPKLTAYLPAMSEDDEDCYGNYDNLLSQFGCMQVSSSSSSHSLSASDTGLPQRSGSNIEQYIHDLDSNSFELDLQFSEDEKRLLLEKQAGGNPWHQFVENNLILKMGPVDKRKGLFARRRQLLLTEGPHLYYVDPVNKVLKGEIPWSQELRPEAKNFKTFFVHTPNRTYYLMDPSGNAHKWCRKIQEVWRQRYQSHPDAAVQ
Put plainly: Test for the inhibition of PDK1 (flashplate, 33P-ATP). The conditions noted are these: His6-PDK1 (1-50) 3.4 nM, 4 μM ATP, 30° C., 60 min; read-out: IC50 [PDK1] biochemical. The protocol:
The experimental batches are carried out in a flashplate system with 384 wells/microtitration plate.
In each case, the PDK1 sample His6-PDK1 (1-50) (3.4 nM), the PDK1 substrate biotin-bA-bA-[…] (400 nM), 4 μM ATP (with 0.2μ Ci of ^33P-ATP/well) and the test substance in 50 μl of conventional experimental solution per well are incubated at 30° C. for 60 min. The test substances are employed in corresponding concentrations (if desired in a dilution series). The control is carried out without test substance. The reaction is stopped using standard methods and washed. The activity of the kinase is measured via the incorporated radioactivity in top count. In order to determine the non-specific kinase reaction (blank value), the experimental batches are carried out in the presence of 100 nM staurosporin.
The radioactivity (decompositions per minute) of the blank value (no use of test substance in the presence of staurosporin) is subtracted from all other radioactivity values. The controls (kinase activity without test substance) are set equal to 100 percent and all other radioactivity values (after subtracting the blank value) are expressed set in relation thereto (for example in % of the control).
IC50 values (50% inhibition) are determined with the aid of statistics programmes, such as, for example, RS1.

For experiment [2], the target named is T2, PDK1 (Homo sapiens, UniProt O15530).
T2 construct: endogenous in cells; host or cells: PC3 cells
T2 sequence (O15530 1-556): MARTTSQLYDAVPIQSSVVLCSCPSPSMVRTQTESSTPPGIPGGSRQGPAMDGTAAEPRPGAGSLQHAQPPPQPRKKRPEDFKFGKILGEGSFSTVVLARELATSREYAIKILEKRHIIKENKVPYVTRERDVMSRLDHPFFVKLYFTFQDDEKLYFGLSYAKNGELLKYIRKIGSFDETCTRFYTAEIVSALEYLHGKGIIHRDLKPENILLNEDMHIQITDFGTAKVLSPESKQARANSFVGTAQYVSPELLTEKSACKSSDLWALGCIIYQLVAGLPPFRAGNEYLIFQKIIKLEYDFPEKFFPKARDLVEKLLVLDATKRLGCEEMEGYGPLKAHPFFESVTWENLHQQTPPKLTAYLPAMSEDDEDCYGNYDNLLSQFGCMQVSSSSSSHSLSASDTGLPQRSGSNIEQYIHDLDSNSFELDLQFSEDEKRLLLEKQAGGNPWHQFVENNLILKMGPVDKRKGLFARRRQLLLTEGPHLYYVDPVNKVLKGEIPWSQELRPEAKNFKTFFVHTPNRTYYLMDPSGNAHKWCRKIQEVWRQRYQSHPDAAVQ
Put plainly: Cellular testing of PDK1 kinase inhibitors in PC3 cells (Luminex, phospho-T308-PKB). Format: cell-based. The conditions noted are these: 30 min, serum-free. The protocol:
Method for the Cellular Testing of PDK1 Kinase Inhibitors in PC3 Cells.
The cellular assay for the determination of the PDK1 kinase activity is carried out as a Luminex assay in the 96-well format. PC3 cells are sown at 20,000 cells per well in 100 μl of medium (45% of […]/45% of Ham's F12/10% of FCS) and incubated on the following day for 30 min with a serial dilution of the test substance (7 concentrations) under serum-free conditions. The cells are subsequently lysed using 90 μl of lysis buffer (20 mM tris/HCl pH 8.0, 150 mM NaCl, 1% of NP40, 10% of glycerol, 1% of phosphatase inhibitor I, 1% of phosphatase inhibitor II, 0.1% of protease inhibitor cocktail III, 0.01% of benzonase) per well, and the lysates are separated off from insoluble cell constituents by means of centrifugation through a 96-well filter plate (0.65 μm). The lysates are incubated overnight at 4° C. with shaking with Luminex beads to which an anti-total PKB antibody is coupled. The detection is carried out on the following day by addition of a phospho-T308-PKB antibody and a species-specific […] secondary antibody. The detection of phospho T308-PKB is carried out by measurement in a Luminex100 instrument by determination of 100 events per cavity in a measurement time of 60 sec. As pharmacological blank, the signals obtained from cells which have been treated with 10 μM staurosporin are subtracted from all other batches. The control value used for maximum phosphorylation of PKB on T308 are the signals from cells which have only been treated with the solvent (0.3% of DMSO). The values of the batches treated with test substance are calculated therefrom as percentage of control, and IC50 values are determined by means of RS 1.

pIC50: −log10 of the molar value.

Turning to `Cn1cc(-c2cnc3[nH]cc(-c4nnc(C(O)c5ccccc5Cl)o4)c3c2)cn1` (racemic) [A58], the pIC50 in experiment [1] and in experiment [2] was 6.00 to 9.30 throughout. In the case of `Cn1cc(-c2cnc3[nH]cc(-c4cc([C@@](C)(O)c5ccccc5)on4)c3c2)cn1` (single isomer, unassigned) [A34], the pIC50 in experiment [1] and in experiment [2] was 6.00 to 9.30 in each case. For the compound `Cn1cc(-c2cnc3[nH]cc(-c4cc([C@](C)(O)c5ccccc5)on4)c3c2)cn1` (single isomer, unassigned) [A35], the pIC50 is 6.00 to 9.30 in experiment [1] and 5.00 to 6.00 in experiment [2]. On the same counts, the results for `Cn1cc(-c2cnc3[nH]cc(-c4cc([C@](C)(O)c5ccccc5F)on4)c3c2)cn1` (single isomer, unassigned) [A55] are 6.00 to 9.30 and 6.00 to 9.30.

As to `Cn1cc(-c2cnc3[nH]cc(-c4cc([C@](C)(O)c5ccccc5F)on4)c3c2)cn1` (single isomer, unassigned) [A56], the pIC50 in experiment [1] is 6.00 to 9.30. As for `Cn1cc(-c2cnc3[nH]cc(-c4cc([C@](C)(O)c5cccc(F)c5)on4)c3c2)cn1` (single isomer, unassigned) [A62], the pIC50 is 6.00 to 9.30 in experiment [1] and 5.00 to 6.00 in experiment [2].

As for `CC[C@](O)(c1cc(-c2c[nH]c3ncc(-c4cnn(C)c4)cc23)no1)c1ccccc1F` (single isomer, unassigned) [A92], the pIC50 in experiment [1] is 6.00 to 9.30. Still for that read-out and setting: in the case of `CC[C@@](O)(c1cc(-c2c[nH]c3ncc(-c4cnn(C)c4)cc23)no1)c1ccccc1F` (single isomer, unassigned) [A93] it was 6.00 to 9.30. Same read-out and setting: next, `Cn1cc(-c2cnc3[nH]cc(-c4nnc([C@H](O)c5ccccc5Cl)o4)c3c2)cn1` (single isomer, unassigned) [A131]: 6.00 to 9.30. For `Cn1cc(-c2cnc3[nH]cc(-c4csc(Cc5ccccc5)n4)c3c2)cn1` [A2, 3-(2-benzyl-thiazol-4-yl)-5-(1-methyl-1H-pyrazol-4-yl)-1H-pyrrolo[2,3-b]pyridine], the negative-log IC50 (pIC50) in experiment [2] is 5.00 to 6.00. In experiment [2], `Cc1sc(Cc2ccccc2)nc1-c1c[nH]c2ncc(-c3cnn(C)c3)cc12` [A3] showed a pIC50 of 5.00 to 6.00. `Cn1cc(-c2cnc3[nH]cc(-c4csc(Cc5cccc(F)c5)n4)c3c2)cn1` [A7] had a pIC50 in experiment [2] of 5.00 to 6.00.

For `Cn1cc(-c2cnc3[nH]cc(-c4noc(Cc5cccc(F)c5)n4)c3c2)cn1` [A8, 3-[5-(3-fluorobenzyl)-1,2,4-oxadiazol-3-yl]-5-(1-methyl-1H-pyrazol-4-yl)-1H-pyrrolo[2,3-b]pyridine], in experiment [1], the pIC50 is 5.00 to 6.00. Same read-out and setting: in the case of `Cn1cc(-c2cnc3[nH]cc(-c4noc(Cc5ccccc5F)n4)c3c2)cn1` [A13] it was 5.00 to 6.00; in that of `Cn1cc(-c2cnc3[nH]cc(-c4noc(Cc5ccccc5)n4)c3c2)cn1` [A26], 5.00 to 6.00. With `Cn1cc(-c2cnc3[nH]cc(-c4noc(C(=O)c5ccccc5)n4)c3c2)cn1` [A27], in experiment [2], the pIC50 was 5.00 to 6.00.

Regarding `Cn1cc(-c2cnc3[nH]cc(-c4n[nH]c(C(O)c5ccccc5)n4)c3c2)cn1` (stereo not drawn) [A30], the pIC50 in experiment [1] was 6.00 to 9.30.

On to `COC(C)(c1ccccc1)c1cc(-c2c[nH]c3ncc(-c4cnn(C)c4)cc23)nn1C` (stereo not drawn) [A73], for which the pIC50 in experiment [1] is 5.00 to 6.00. Same read-out and setting: next, `Cn1cc(-c2cnc3[nH]cc(-c4cc(C(C)(O)c5ccccc5)n(C)n4)c3c2)cn1` (stereo not drawn) [A76]: 5.00 to 6.00. Same read-out and setting: next, `CCOC(c1ccccc1)c1cc(-c2c[nH]c3ncc(-c4cnn(C)c4)cc23)n[nH]1` (stereo not drawn) [A90]: 6.00 to 9.30; `Cn1cc(-c2cnc3[nH]cc(-c4cc(C(C)(O)c5ccnnc5)on4)c3c2)cn1` (stereo not drawn) [A98, 1-{3-[5-(1-methyl-1H-pyrazol-4-yl)-1H-pyrrolo[2,3-b]pyridin-3-yl]isoxazol-5-yl}-1-pyridazin-4-ylethanol]: 6.00 to 9.30; `Cn1cc(-c2cnc3[nH]cc(-c4cc(C(O)(c5ccccc5)C5CCOCC5)[nH]n4)c3c2)cn1` (stereo not drawn) [A101, {5-[5-(1-methyl-1H-pyrazol-4-yl)-1H-pyrrolo[2,3-b]pyridin-3-yl]-2H-pyrazol-3-yl}phenyl(tetrahydropyran-4-yl)methanol]: 6.00 to 9.30. Same read-out and setting: next, `Cn1cc(-c2cnc3[nH]cc(-c4cc(C(O)(c5ccccc5)C5CCOCC5)no4)c3c2)cn1` (stereo not drawn) [A102]: 6.00 to 9.30. `Cn1cc(-c2cnc3[nH]cc(-c4cc(C(O)(c5ccccc5)C5CCOCC5)on4)c3c2)cn1` (stereo not drawn) [A103]: the pIC50 in experiment [1] was 6.00 to 9.30. On the same count and under the same terms, in the case of `CCN(CC)Cc1cc(-c2c[nH]c3ncc(-c4cnn(C)c4)cc23)no1` [A104] it was 6.00 to 9.30. Still for that read-out and setting: next, `Cn1cc(-c2cnc3[nH]cc(-c4cc(C(O)c5ccccc5)nn4CCO)c3c2)cn1` (stereo not drawn) [A106]: 5.00 to 6.00; `Cn1cc(-c2cnc3[nH]cc(-c4nnc([C@H](N)c5ccccc5)o4)c3c2)cn1` [A108, C—((R)—C-{5-[5-(1-methyl-1H-pyrazol-4-yl)-1H-pyrrolo[2,3-b]pyridin-3-yl]-1,3,4-oxadiazol-2-yl}-C-phenyl)methylamine]: 6.00 to 9.30; `Cn1cc(-c2cnc3[nH]cc(-c4nnc([C@@H](N)c5ccccc5)o4)c3c2)cn1` [A109, C—((S)—C-{5-[5-(1-methyl-1H-pyrazol-4-yl)-1H-pyrrolo[2,3-b]-pyridin-3-yl]-1,3,4-oxadiazol-2-yl}-C-phenyl)methylamine]: 6.00 to 9.30. Same read-out and setting: next, `Cn1cc(-c2cnc3[nH]cc(-c4nnc(C5(c6ccnc(O)c6)CC5)o4)c3c2)cn1` [A111]: 6.00 to 9.30; `CCC(N)(c1ccccc1)c1nnc(-c2c[nH]c3ncc(-c4cnn(C)c4)cc23)o1` (stereo not drawn) [A114]: 5.00 to 6.00; `Cn1cc(-c2cnc3[nH]cc(-c4nnc(C(N)c5cccnc5)o4)c3c2)cn1` (stereo not drawn) [A115]: 5.00 to 6.00. The compound `Cn1cc(-c2cnc3[nH]cc(-c4nc(C5(c6ccccc6Cl)CC5)no4)c3c2)cn1` [A119] had a pIC50 in experiment [2] of 5.00 to 6.00.

Regarding `Cn1cc(-c2cnc3[nH]cc(-c4nnc(C(C)(C)c5ccnnc5)o4)c3c2)cn1` [A121, 5-(1-methyl-1H-pyrazol-4-yl)-3-[5-(1-methyl-1-pyridazin-4-ylethyl)-1,3,4-oxadiazol-2-yl]-1H-pyrrolo[2,3-b]pyridine], the pIC50 in experiment [1] was 5.00 to 6.00. In turn, `Cn1cc(-c2cnc3[nH]cc(-c4nnc(C(O)c5ccc(C(=O)NC6CCCCC6)cc5Cl)o4)c3c2)cn1` (stereo not drawn) [A129, 3-chloro-N-cyclohexyl-4-(hydroxy-{5-[5-(1-methyl-1H-pyrazol-4-yl)-1H-pyrrolo[2,3-b]pyridin-3-yl]-1,3,4-oxadiazol-2-yl}methyl)benzamide] gave a pIC50 in experiment [2] of 5.00 to 6.00.

For orientation: pIC50 means the negative decadic logarithm of the IC50, by convention in mol/L.

For the origin of these results see patent US20130245355A1, “3-HETARYL-SUBSTITUTED PYRROLO[2,3 B]PYRIDINE DERIVATIVES AS PDK1 INHIBITORS” (MERCK PATENT GMBH, priority 2010, published 2013).
